Data on 3 compounds can be found in patent publication US20250268901A1, “CRYSTAL FORM OF AZETIDINE-SUBSTITUTED COMPOUND” (MEDSHINE DISCOVERY INC., priority 2020, published 2025).

The test system of data set [1] is A427 cells. Briefly: Cell proliferation assay (CellTiter-Glo), A427. The class given is cell-based, Human. As to the method:
(§1) The effect of the compound on cell proliferation was examined on NC-H358, MA-PA-CA-2, A375, SW1463, and A427 cells.
Medium for A427 cell line: 89% EMEM medium+10% fetal bovine serum+1% P/S
(§2) • 1. The medium and pancreatin used in the process of cell passaging were pre-heated in a water bath at 37° C. • 2. The cells were rinsed with pancreatin and digested with pancreatin until the cells were detached. A culture solution was added, and the cells and the culture solution were well mixed to stop the digestion. • 3. The cells were pipetted into a 15 mL centrifuge tube, 0.01 mL of cell suspension was pipetted onto a count plate, and cells were counted. • 4. According to the cell densities shown in the table below, a proper amount of each type of cells was transferred to a 15 mL centrifuge tube and made up to a volume of 9 mL with a corresponding cell culture solution.
• 5. […]
(§3) • 1. On the day of compound treatment, the day-0 test plate was removed from the incubator, 50 µL of Cell Titer Glo was added, and the plate was centrifuged at 1000 rpm for 10 s, shaken at room temperature for 10 min, then centrifuged again at 1000 rpm for 10 s, and read on Envision. • 2. […] To each well of the 96-well plates, 50 µL of Cell Titer-Glo was added, and the plates were centrifuged at 1000 rpm for 10 s, shaken at room temperature for 10 min, then centrifuged again at 1000 rpm for 10 s, and read on Envision. • 3. […]

Data set [2] concerns MIA-PA-CA-2 cells. Kind of data set: Cell proliferation assay (CellTiter-Glo), MIA-PA-CA-2. The data set is classed as cell-based, Human. As to the method:
as §1
Medium for MIA-PA-CA-2 cell line: 86.5% DMEM medium+10% fetal bovine serum+2.5% horse serum+1% P/S
(§4) • 1. The medium and pancreatin used in the process of cell passaging were pre-heated in a water bath at 37° C. • 2. The cells were rinsed with pancreatin and digested with pancreatin until the cells were detached. A culture solution was added, and the cells and the culture solution were well mixed to stop the digestion. • 3. The cells were pipetted into a 15 mL centrifuge tube, 0.01 mL of cell suspension was pipetted onto a count plate, and cells were counted. • 4. […]
as §3

Data set [3] deals with SW1463 cells. Kind of data set: Cell proliferation assay (CellTiter-Glo), SW1463. The class given is cell-based, Human. As to the method: as §1
Medium for SW1463 cell line: 89% Leibovit2 sL-15 medium+10% fetal bovine serum+1% P/S
as §4, §3

For data set [4], the system named is NCI-H358 cells. Briefly: Cell proliferation assay (CellTiter-Glo), NCI-H358. The data set is classed as cell-based, Human. The procedure: as §1
Medium for H358 cell line: 89% RPMI1640 medium+10% fetal bovine serum+1% P/S
as §2
• 5. […]
as §3

The test system of data set [5] is A375 cells. Kind of data set: Cell proliferation assay (CellTiter-Glo), A375. The data set is classed as cell-based, Human. The procedure:
as §1
Medium for A375 cell line: 89% DMEM medium+10% fetal bovine serum+1% P/S
as §2
• 5. […]
as §3

The nature of data set [6]: Solid stability of crystal form (XRPD and HPLC). The class given is physicochemical. The procedure:
The purity and solubility of a sample are determined through a high performance liquid chromatograph Agilent 1260 HPLC.
To evaluate the solid stability of crystal form C of the compound of formula (I), crystal form C of the compound of formula (I) was subjected to stability testing under affecting factor conditions (high temperature, high humidity, and light), 60° C./75% RH conditions, and 40° C./75% RH conditions. Crystal form C was placed under a high-temperature condition (60° C., closed) and a high-humidity condition (92.5% RH, wrapped in a sealing film, with 5 small holes made) for 1 week and 2 weeks, placed in a closed container in visible light and ultraviolet light (a light-shielding control group was set at the same time, and the sample was wrapped in tinfoil) according to the ICH conditions (visible light illumination reached 1.2E+06 Lux hrs, and ultraviolet light illumination reached 200 W·hrs/m2), and meanwhile placed under 60° C./75% RH conditions (wrapped in a sealing film, with 5 small holes made) for 1 month and 2 months and under 40° C./75% RH conditions (wrapped in a sealing film, with 5 small holes made) for 1 month, 2 months, and 3 months. All the stability samples were tested for crystal form change by XRPD analysis and were analyzed by HPLC.

Data set [7] in a line: Pressure stability of crystal form (hydraulic press, XRPD). The data set is classed as physicochemical. As to the method: The Hydraulic press experiment is carried out on an SYP-5BS manual press, and the pressure put on to the sample is about 350 MPa.
Crystal form C of the compound of formula (I) was added to a circular mold (6 mm in diameter) and pressurized to about 350 MPa. A small piece of the sheet-like sample was directly taken for XRPD analysis.

Data set [8] relates to KRAS G12C. The note with it: cited from earlier work.
In data set [9] the test system is pancreatic cancer MIA-Paca2 cell. The note with it: subcutaneous xenograft tumor model of pancreatic cancer MIA-Paca2 cell; cited from earlier work.
Where [10] appears, read: Light-shielding control group, simultaneously with visible + ultraviolet.
[11] abbreviates: Visible + ultraviolet (ICH conditions), 1.2E+06 Lux · hrs, 300 W · hrs/m^2.

SMILES strings stand for the structures. Bounds are passed on as bounds.

For the compound `C=CC(=O)N1CCN(c2nc(N3CC(N(CC)CC)C3)nc3c(=O)n(-c4c(N)c(Cl)cc(Cl)c4F)c(C(F)(F)F)cc23)CC1` [Compound of formula (I)], the IC50 in data set [1] (Homo sapiens, A-427, A427, 72 h incubation, CellTiter-Glo) is above 6.98 µM; in data set [2] (Homo sapiens, MIA PaCa-2, MIA-PA-CA-2, 72 h incubation, CellTiter-Glo) it was 34 ± 7.03 nM; in [3] (Homo sapiens, SW1463, 144 h incubation, CellTiter-Glo) it was 112 ± 32.7 nM; in data set [4] (Homo sapiens, NCI-H358, 120 h incubation, CellTiter-Glo) it was 13 ± 1.85 nM; in data set [5] (Homo sapiens, A-375, A375, 72 h incubation, CellTiter-Glo), 4.64 ± 0.0898 µM. The activity on cell result in data set [1] (human lung cancer cell A427) and in [5] (melanoma cell A375) was “weak activity” each time. The “inhibitory activity against proliferation” value in data set [2] (pancreatic cancer cell MIA-PA-CA-2), in data set [3] (human rectal adenocarcinoma cell SW1463) and in data set [4] (human non-small cell lung cancer cell NCI-H358) was “good inhibitory activity” each time.

Take `C=CC(=O)N1CCN(c2nc(N3CC(N(CC)CC)C3)nc3c(=O)n(-c4c(N)c(Cl)cc(Cl)c4F)c(C(F)(F)F)cc23)CC1` [crystal form C]: the Crystal form change result in data set [6] (40° C./75% RH, 1 month) is on record as “Unchanged”; in [6] (40° C./75% RH, 2 months) it was “Unchanged”; in data set [6] (40° C./75% RH, 3 months), “Unchanged”; in data set [6] (60° C., closed, 1 week), “Unchanged”; in [6] (60° C., closed, 2 weeks), “Unchanged”; in [6] (60° C./75% RH, 1 month), “Unchanged”. Further, the Crystal form change entry is reported as “Unchanged” in data set [6] (60° C./75% RH, 2 months); “Unchanged” in data set [6] (92.5% RH, 1 week); “Unchanged” in data set [6] (92.5% RH, 2 weeks); “Unchanged” in data set [6] (setting [10]); “Unchanged” in data set [6] (Starting sample); “Unchanged” in data set [6] (setting [11]). Also, the “Purity (%)” value was 98.00% in data set [6] (40° C./75% RH, 1 month); 97.92% in data set [6] (40° C./75% RH, 2 months); 98.02% in [6] (40° C./75% RH, 3 months); 97.99% in data set [6] (60° C., closed, 1 week); 97.98% in data set [6] (60° C., closed, 2 weeks); 97.92% in data set [6] (60° C./75% RH, 1 month). In addition, the “Purity (%)” value was found to be 97.98% in data set [6] (60° C./75% RH, 2 months); 98.03% in [6] (92.5% RH, 1 week); 98.00% in data set [6] (92.5% RH, 2 weeks); 98.00% in data set [6] (setting [10]); 97.85% in data set [6] (Starting sample); 96.62% in data set [6] (setting [11]). For the same compound, the Relative purity in [6] (40° C./75% RH, 1 month) was determined as 100.2%; in [6] (40° C./75% RH, 2 months), 100.1%; in [6] (40° C./75% RH, 3 months) it was 100.2%; in [6] (60° C., closed, 1 week), 100.1%; in [6] (60° C., closed, 2 weeks), 100.1%; in data set [6] (60° C./75% RH, 1 month), 100.1%. Moreover, the Relative purity is recorded as 100.1% in data set [6] (60° C./75% RH, 2 months); 100.2% in data set [6] (92.5% RH, 1 week); 100.2% in data set [6] (92.5% RH, 2 weeks); 100.2% in [6] (setting [10]); 98.7% in data set [6] (setting [11]). The “solid stability (conclusion)” value in data set [6] (high temperature, high humidity, light, 60° C./75% RH, 40° C./75% RH) is reported as “good solid stability”. The “pressure stability (conclusion)” value in [7] (about 350 MPa) is recorded as “good pressure stability”. In addition, in [7] (pressure of about 350 MPa), the “crystal form change after being pressed (XRPD)” value was “did not change”.

As for `C=CC(=O)N1CCN(c2ncnc3c(F)c(-c4c(O)cccc4F)c(Cl)cc23)CC1` [ARS-1620], the “cell antiproliferative activity at the cellular level” value in data set [8] is given as “nM level”. Further, the tumor growth inhibition entry in [9] is recorded as “can effectively inhibit tumor growth”.
